Experimental findings from ChEMBL document CHEMBL3603755 (J Med Chem, 2015) are described below.

Activity calls are given as the source filed them. The calls are words filed in the database; no cut-off is given here.

The nature of assay [1]: Inhibition of human SULU1.
Assay [2] concerns MCF7.
The test system of assay [3] is CAPAN-1. The assay can be described thus: Antitumor activity against human Capan1 cells xenografted in athymic nu/nu mouse assessed as tumor growth inhibition at 50 mg/kg administered for 5 days. It counts as functional, organism-based.

One may read the IC50 as the concentration that inhibits the measured activity by half. Higher therefore signals lower potency.

For `NC(=O)c1cc(F)cc2c1C(=O)N(C1CCN(C3CCC(F)(F)CC3)CC1)C2`, the IC50 in assay [1] was above 10 µM.

Regarding `NC(=O)c1cccc2c1C(=O)N(C1CCN(C3CCC(F)(F)CC3)CC1)C2`, the IC50 in assay [2] is above 10 µM.

Take `Cn1nnc2c(C(N)=O)ncn2c1=O`: the TGI result in assay [3] is “inactive”.
